Assays:
[1] = system: A549 lung fibroblasts; assay: Epithelial to mesenchymal transition gene expression in A549; format: cell-based; settings: 5 ng/ml TGF-beta1, 48 h, up to 5 micromolar
Protocol: To evaluate whether Compounds 01 and 04 could inhibit epithelial to mesenchymal transition (EMT), an in vitro model using A549 lung fibroblasts was utilized. A549 cells were purchased from ATCC (CCL-185), and grown in RPMI media supplemented with 10 percent fetal bovine serum (FBS). On the day of the experiment, ten thousand A549 cells were seeded in eighty microliters total volume into a flat, tissue culture coated, ninety-six-well plate. Drugs, including positive control compounds vactosertib, PF-06952229 and LY3200882, were added in an eight point, one to three dilution series with the highest concentration of each drug being five micromolar, bringing the total volume of each well to ninety microliters. DMSO, which served to dissolve the 10 millimolar stock solution of each drug, was normalized across all wells After one hour of drug pretreatment, recombinant human TGF-beta1 was added to a final concentration of five nanograms per milliliter, bringing the volume to one hundred microliters. Recombinant human TGF-beta 1 was purchased from R&D Systems (7754-BH-005) and its stock solution was prepared according to manufacturer's instructions and diluted in RPMI media supplemented with 10% FBS. The ninety-six well plate with one hundred microliter volume was incubated at 37° C. at 5% CO2 for forty-eight hours. At the end of the incubation period, gene expression levels of various EMT markers were assessed using a custom designed QuantiGene Plex Gene Expression Assay. The genes chosen were CDH1 (E-cadherin), CDH2 (N-Cadherin), SNAI1 (Snail), SNAI2 (Slug), VIM (Vimentin), SPARC, GALNT6, CTNNB1 (beta-catenin), TGFB1, and MAML3.
Briefly, cell lysate was prepared using the QuantiGene Sample Processing Kit —Cultured Cells (QS0100) in the ninety-six well plate. Cell lysates were then subjected to bead hybridization, multiple probe hybridization steps and SAPE labeling following manufacturer's instruction. The plate was read on a Luminex MAGPIX instrument.

[2] = system: TGF-β1-mediated αSMA expression; settings: human, 73 h
Protocol: To test the ability of selected compounds to inhibit the TGF-β1-dependent transition of fibroblasts to myofibroblasts in a relevant disease model of IPF, an FMT assay was performed using lung fibroblasts from IPF patients. In this assay, the transition of fibroblasts to myofibroblasts is determined by the expression of the biomarker alpha smooth muscle actin (α-SMA).
Primary human bronchial fibroblasts derived from IPF patients were seeded on day zero and the media was refreshed on day two. On day five, selected compounds or controls were added at an eight-point concentration response curve starting at 10 μM (semi-log dilutions). Each drug concentration condition was evaluated in biological duplicates. […] Seventy-two hours following TGF-beta addition, the cells were fixed with formaldehyde. High content imaging evaluating cell number using the nuclear stain DAPI as well as the expression of a-SMA was performed. The following controls were run alongside the selected compounds: vactosertib and the approved IPF drug nintedanib (at an eight-point, semi-log curve with 10 μM starting concentration). As a negative control 0.1% DMSO was also used, matching the DMSO concentration in treated wells. The following calculations were used to determine cell number as well as percent inhibition (PIN) of alpha SMA expression:
• Segmentation and quantification of αSMA immunoreactivity by an HCA algorithm, with density×area (D×A) output • Data normalization of raw αSMA (D×A) to percentage inhibition (PIN) values, on a plate-to-plate basis
• DAPI fluorescence applied for HCA-based quantification of the number of imaged cells, on a plate-to-plate basis
[formula] • μn is the average numbers of nuclei of the vehicle control (TGF-β1+0.1% DMSO) • Xi is the compound number of nuclei

SMILES | CDH1 (E-Cadherin) gene expression [1] | expression of the nine genes induced with EMT (CDH2, SNAI1, SNAI2, VIM, SPARC, GALNT6, CTNNB1, TGFB1, MAML3) [1] | Potentially toxic concentration [2]
Cc1nn(CC(F)(F)F)cc1Nc1cc(Nc2cnnc3c(C)cccc23)ccn1 [Compound 01, N2-[3-methyl-1-(2,2,2-trifluoroethyl)-1H-pyrazol-4-yl]-N4-(8-methylcinnolin-4-yl)pyridine-2,4-diamine] | inhibition of downregulation of CDH1 (E-Cadherin) | inhibition of induction of the nine genes that are induced with EMT | –
Clc1cccc2c(Nc3ccnc(Nc4cccc(N5CCOCC5)c4)c3)cnnc12 [Compound 04, N4-(8-chlorocinnolin-4-yl)-N2-[3-(morpholin-4-yl)phenyl]pyridine-2,4-diamine] | inhibition of downregulation of CDH1 (E-Cadherin) | inhibition of induction of the nine genes that are induced with EMT | –
Cc1cccc(-c2[nH]c(CNc3ccccc3F)nc2-c2ccc3ncnn3c2)n1 [Vactosertib, vactosertib, reference compound] | – | – | 5.0

From patent publication US20240197729A1, “ALK-5 Inhibitors and Uses Thereof” (Sumitomo Pharma Oncology, Inc., priority 2021, published 2024)
